Consider one compound from US20140336259A1, “PHENOLIC COMPOUNDS WITH ANTIOXIDANT AND ANTI-CANCER PROPERTIES, ANALOGS AND SYNTHESIS THEREOF” (priority 2011, published 2014).

In brackets after ≈: the same amount, converted by molar mass. Several values for one entry are separate records, joined by “and”; a condition that tells them apart may be missing. Equal values may be shown once. Read-outs that look alike come from different tables or passages of the source.

Data set [1] relates to MCF-7 (estrogen receptor (ER) positive) human breast cancer cells. Nature of the data set: MTS antiproliferative/cytotoxicity assay on MCF-7 cells. The note with it: for MCF-7 IC50: 72 h treatment, mean ± S.D., vs DMSO 0.5% control.
Data set [2] deals with MDA-MB-231 (ER negative) human breast cancer cells. Nature of the data set: MTS antiproliferative/cytotoxicity assay on MDA-MB-231 cells. Format: cell-based. The note with it: Homo sapiens.
A further data set relates to colon cancer cell lines. Particulars: Gonzales-Sarrias et al. 2011; cited from earlier work.

One may read the IC50 as the point on the concentration scale where inhibition reaches its midpoint. Take `COc1cc(C(CO)C(c2ccc(O)c(OC)c2)c2ccc(O)c(OC)c2)ccc1O` (centres unmarked) [QUEBECOL, 4,4′,4″-(3-Hydroxypropane-1,1,2-triyl)tris(2-methoxyphenol)]: in data set [1] (24 h), the “IC50 MCF-7 24 h” value came out at 65.9 µg/mL (≈ 155 µM). Besides, the “IC50 MCF-7 48 h” value in data set [1] (48 h) is 53.5 µg/mL (≈ 125 µM). In addition, the “MCF-7 IC50” value in data set [1] and in data set [1] (listed as QUEBECOL Natural) was 46.3 ± 2.1 µg/mL throughout. Besides, the “IC50 MCF-7 96 h” value in data set [1] (96 h) amounted to 37.4 µg/mL (≈ 87.7 µM). For the same compound, the half-maximal inhibitory concentration (IC50) in data set [1] (read-out: IC50 MCF-7 24 h, 24 h, combination study Table 5A, T starting 50 μM, Q starting 200 μM) amounted to 155 µM; in data set [1] (read-out: IC50 MCF-7 24 h, 24 h, listed as QUEBECOL Natural), 155 µM; in data set [1] (read-out: IC50 MCF-7 48 h, 48 h, combination study Table 5A), 126 µM; in data set [1] (read-out: IC50 MCF-7 48 h, 48 h, listed as QUEBECOL Natural), 126 µM; in data set [1] (read-out: IC50 MCF-7 72 h, 72 h, combination study Table 5A), 109 µM; in data set [1] (read-out: IC50 MCF-7 72 h, 72 h, listed as QUEBECOL Natural) it was 109 µM. Moreover, the IC50 in data set [1] (read-out: IC50 MCF-7 96 h, 96 h, combination study Table 5A) was 87.9 µM; in data set [1] (read-out: IC50 MCF-7 96 h, 96 h, listed as QUEBECOL Natural), 87.9 µM; in data set [2] (MDA-MB-231, 24 h, 24 h, combination study Table 5B, T starting 50 μM, Q starting 200 μM, read-out: IC50 MDA-MB-231 24 h) it was 166 µM; in data set [2] (MDA-MB-231, 24 h, 24 h, read-out: IC50 MDA-MB-231 24 h), 70.9 µg/mL and 166 µM; in data set [2] (MDA-MB-231, 48 h, read-out: IC50 MDA-MB-231 48 h, 48 h), 57 µg/mL and 134 µM; in data set [2] (MDA-MB-231, 48 h, read-out: IC50 MDA-MB-231 48 h, 48 h, combination study Table 5B), 134 µM. Besides, the IC50 was 119 µM in data set [2] (MDA-MB-231, 72 h, 72 h, combination study Table 5B, read-out: IC50 MDA-MB-231 72 h); 50.7 µg/mL and 119 µM in data set [2] (MDA-MB-231, 72 h, 72 h, read-out: IC50 MDA-MB-231 72 h); 50.7 ± 2.4 µg/mL in data set [2] (MDA-MB-231, 72 h, 72 h treatment, mean ± S.D., vs DMSO 0.5% control, read-out: MDA-MB-231 IC50); 102 µM in data set [2] (MDA-MB-231, 96 h, 96 h, combination study Table 5B, read-out: IC50 MDA-MB-231 96 h); 43.3 µg/mL and 102 µM in data set [2] (MDA-MB-231, 96 h, 96 h, read-out: IC50 MDA-MB-231 96 h). The “cytotoxic effect on colon cancer cell lines” value with colon cancer cell lines is reported as “cytotoxic effect”.
